Laboratory results: US11780893B2, “Kv1.3 blockers” (Zealand Pharma A/S, priority 2019, dated 2023)
Bridge positions count the residues as written; N and C are the ends. Square brackets hold non-standard residues; d marks the D form. Peptide text beside a SMILES is read from it. Nle = CCCC[C@H](N)C(=O)O

How the values were obtained:
[1] = target: T1, human Kv1.3 voltage-gated K+ channel (Homo sapiens, UniProt P22001); assay: cell-based; conditions: inhibition of thallium flux, CHO-DUKX cells with human Kv1.3; read-out: IC50
T1 construct: host or cells: CHO-DUKX

Kv1.1 = target: T2, Kv1.1 (Homo sapiens, UniProt Q09470); assay: cell-based; conditions: for IC50: CHO cells, whole-cell patch clamp, read-out: Potency IC50 (nM) Kv1.1; for Selectivity Kv1.1/Kv1.3: ratio IC50[Kv1.1]/IC50[Kv1.3]
T2 construct: expressed in transfected cells; host or cells: Chinese Hamster Ovary (CHO)

Kv1.2 = target: T3, Kv1.2 (Homo sapiens, UniProt P16389); assay: cell-based; conditions: CHO cells, whole-cell patch clamp; read-out: Potency IC50 (nM) Kv1.2
T3 construct: expressed in transfected cells; host or cells: Chinese Hamster Ovary (CHO)

Kv1.3 = target: T4, Kv1.3 (Homo sapiens, UniProt P22001); assay: cell-based; conditions: CHO cells, whole-cell patch clamp; read-out: Potency IC50 (nM) Kv1.3
T4 construct: expressed in transfected cells; host or cells: Chinese Hamster Ovary (CHO)

Kv1.6 = target: T5, Kv1.6 (Homo sapiens, UniProt P17658); assay: cell-based; conditions: CHO cells, whole-cell patch clamp; read-out: Potency IC50 (nM) Kv1.6
T5 construct: expressed in transfected cells; host or cells: Chinese Hamster Ovary (CHO)

[2] = test system: Human peripheral blood mononuclear cells (PBMCs); assay: IL-2 release from anti-CD3 stimulated human PBMCs (Example 4a); format: cell-based; conditions: for IC50: geometric mean, at least 4 replicates, read-out: anti-CD3 PBMC/IL-2 IC50
Method: Human peripheral blood mononuclear cells (PBMCs) were used to assess the effects of Kv1.3 blockers on T-cell activation as determined by IL-2 (cytokine) release after stimulation with anti-CD3.
Human PBMCs were obtained from Precision for Medicine (Frederick, Md.). Cells from 5 donors were used. Plate-bound anti-CD3 was used to stimulate bulk T cells in the PBMC preparations. Briefly, 96-well plates were coated with anti-CD3 antibody for 2 hrs at 37° C., using 50 μL of a 0.5 μg/mL anti-CD3 solution diluted in 1×PBS. Thereafter the plates were washed twice.
Finally, 1×10^5 PBMCs were added to each well in a volume of 100 μL, giving a final volume of 200 μL per well. The plates were incubated for 20-24 hours in a 37° C./5% CO2 incubator. After centrifugation of the plates, 25 μl supernatant was transferred to IL-2 detection plates (MSD Human IL-2 Tissue Culture Kit, cat #K151AHB-2) and IL-2 was measures as described by the manufacturer (Meso Scale Discovery, Rockville, Md., USA).
Results are shown in Table 4a as geometric mean of IC50 values obtained from anti-CD3 stimulated human PBMC assays. All values derive from at least 4 replicates.

Rat whole blood = Rat whole blood (Rattus norvegicus, UniProt P15384)
Sequence of Rat whole blood (P15384 whole entry): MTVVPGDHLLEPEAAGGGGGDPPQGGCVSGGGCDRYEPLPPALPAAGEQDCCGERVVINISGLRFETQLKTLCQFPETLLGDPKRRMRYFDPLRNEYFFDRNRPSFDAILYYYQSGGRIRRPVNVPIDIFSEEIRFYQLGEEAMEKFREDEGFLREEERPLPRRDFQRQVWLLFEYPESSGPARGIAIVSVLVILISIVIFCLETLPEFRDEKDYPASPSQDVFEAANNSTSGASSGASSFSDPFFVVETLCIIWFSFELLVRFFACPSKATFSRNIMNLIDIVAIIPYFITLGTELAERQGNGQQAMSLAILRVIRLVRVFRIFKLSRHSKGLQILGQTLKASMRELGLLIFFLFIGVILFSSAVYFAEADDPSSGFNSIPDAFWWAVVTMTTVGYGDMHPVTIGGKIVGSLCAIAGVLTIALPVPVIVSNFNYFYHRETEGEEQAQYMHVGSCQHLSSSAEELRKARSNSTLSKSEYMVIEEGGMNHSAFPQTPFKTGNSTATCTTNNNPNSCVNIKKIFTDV

T1 sequence (P22001 whole entry): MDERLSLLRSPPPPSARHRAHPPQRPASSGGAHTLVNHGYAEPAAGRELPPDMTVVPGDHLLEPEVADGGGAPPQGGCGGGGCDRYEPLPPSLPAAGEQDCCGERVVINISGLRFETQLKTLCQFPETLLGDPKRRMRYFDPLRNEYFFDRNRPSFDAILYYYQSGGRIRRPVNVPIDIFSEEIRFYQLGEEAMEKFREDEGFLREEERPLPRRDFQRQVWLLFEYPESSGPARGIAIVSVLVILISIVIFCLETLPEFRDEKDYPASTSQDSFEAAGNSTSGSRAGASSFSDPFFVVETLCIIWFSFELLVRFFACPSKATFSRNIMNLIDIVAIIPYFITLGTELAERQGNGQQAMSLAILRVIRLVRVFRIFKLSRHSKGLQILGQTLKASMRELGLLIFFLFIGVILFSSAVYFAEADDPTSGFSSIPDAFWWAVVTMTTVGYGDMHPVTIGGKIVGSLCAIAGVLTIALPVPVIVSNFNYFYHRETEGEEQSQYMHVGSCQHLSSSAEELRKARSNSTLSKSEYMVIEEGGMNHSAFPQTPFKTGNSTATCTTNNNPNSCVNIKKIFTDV
T4 sequence (P22001 whole entry): as above
T5 sequence (P17658 whole entry): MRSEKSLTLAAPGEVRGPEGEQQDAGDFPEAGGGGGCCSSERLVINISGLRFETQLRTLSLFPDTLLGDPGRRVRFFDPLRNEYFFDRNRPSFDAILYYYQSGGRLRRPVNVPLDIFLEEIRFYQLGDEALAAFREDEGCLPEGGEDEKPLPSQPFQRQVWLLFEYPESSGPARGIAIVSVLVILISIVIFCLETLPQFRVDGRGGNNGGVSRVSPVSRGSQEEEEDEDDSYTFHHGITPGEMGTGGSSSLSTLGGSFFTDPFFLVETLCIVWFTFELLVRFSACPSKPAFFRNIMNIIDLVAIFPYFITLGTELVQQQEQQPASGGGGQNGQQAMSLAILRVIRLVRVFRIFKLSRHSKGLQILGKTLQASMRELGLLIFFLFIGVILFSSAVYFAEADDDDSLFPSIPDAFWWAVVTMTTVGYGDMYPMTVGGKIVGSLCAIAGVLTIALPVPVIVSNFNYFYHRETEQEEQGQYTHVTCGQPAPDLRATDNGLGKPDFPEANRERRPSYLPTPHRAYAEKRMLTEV
T3 sequence (P16389 whole entry): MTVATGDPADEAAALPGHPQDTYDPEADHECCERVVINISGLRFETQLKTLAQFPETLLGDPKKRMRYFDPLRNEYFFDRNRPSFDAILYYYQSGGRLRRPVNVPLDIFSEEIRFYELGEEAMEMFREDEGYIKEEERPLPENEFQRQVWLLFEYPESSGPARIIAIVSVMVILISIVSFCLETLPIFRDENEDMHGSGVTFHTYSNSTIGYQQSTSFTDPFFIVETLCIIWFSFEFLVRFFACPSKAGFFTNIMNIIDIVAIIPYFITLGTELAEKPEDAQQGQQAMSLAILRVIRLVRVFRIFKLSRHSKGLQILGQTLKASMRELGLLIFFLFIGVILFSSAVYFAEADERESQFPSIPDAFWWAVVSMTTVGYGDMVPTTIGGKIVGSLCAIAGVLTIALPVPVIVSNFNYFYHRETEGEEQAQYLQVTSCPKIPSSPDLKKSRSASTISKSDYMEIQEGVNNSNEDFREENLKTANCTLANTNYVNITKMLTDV
T2 sequence (Q09470 whole entry): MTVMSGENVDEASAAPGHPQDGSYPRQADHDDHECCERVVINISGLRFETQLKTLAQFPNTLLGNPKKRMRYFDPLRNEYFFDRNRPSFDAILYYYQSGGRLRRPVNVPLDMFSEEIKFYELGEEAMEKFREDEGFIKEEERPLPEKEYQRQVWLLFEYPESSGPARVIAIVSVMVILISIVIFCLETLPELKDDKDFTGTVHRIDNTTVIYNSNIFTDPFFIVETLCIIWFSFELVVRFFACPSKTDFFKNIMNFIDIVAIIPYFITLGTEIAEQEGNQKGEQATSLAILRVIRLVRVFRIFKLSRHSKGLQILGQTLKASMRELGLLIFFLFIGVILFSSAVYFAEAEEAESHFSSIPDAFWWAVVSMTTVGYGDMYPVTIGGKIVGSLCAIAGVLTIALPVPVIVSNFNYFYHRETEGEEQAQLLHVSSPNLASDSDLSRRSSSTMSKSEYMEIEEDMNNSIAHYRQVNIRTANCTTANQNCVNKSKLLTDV

| Structure (SMILES) | IC50 [1] | IC50 (Kv1.1) | Selectivity Kv1.1/Kv1.3 (Kv1.1) | IC50 (Kv1.2) | IC50 (Kv1.3) | IC50 (Kv1.6) | IC50 [2] | IC50 (Rat whole blood) | IC50 of Moka1 relative to IC50 of test compounds and ShK186 (IL-2 secretion) ([2]; test compound IC50 lower than that of Moka1) |
| --- | --- | --- | --- | --- | --- | --- | --- | --- | --- |
| CCCC[C@@H]1NC(=O)[C@@H]2CSSC[C@H](NC(=O)[C@H](CCCNC(=N)N)NC(=O)[C@H](CCSC)NC(=O)[C@H](CC(=O)O)NC(=O)[C@H](CCSC)NC(=O)[C@@H](N)CC(N)=O)C(=O)N[C@@H](CO)C(=O)N[C@@H](C)C(=O)N[C@@H](CO)C(=O)N[C@@H](C(C)C)C(=O)N[C@@H](CCC(=O)O)C(=O)N[C@H]3CSSC[C@H](NC(=O)[C@H](CCCCN)NC(=O)[C@H](CCCCN)NC(=O)[C@H](CC(N)=O)NC1=O)C(=O)N[C@@H](CCCCN)C(=O)N[C@H](C(=O)N[C@@H](Cc1ccc(O)cc1)C(=O)N1CCC[C@H]1C(=O)N[C@@H](CCCNC(=N)N)C(N)=O)CSSC[C@H](NC(=O)[C@H](CCCCN)NC(=O)[C@H](CCC(N)=O)NC(=O)[C@H](CCCCN)NC3=O)C(=O)N[C@@H](CC(C)C)C(=O)N[C@@H](CCCCN)C(=O)N[C@@H](C)C(=O)N[C@@H]([C@@H](C)CC)C(=O)NCC(=O)N[C@@H](CO)C(=O)N[C@@H]([C@@H](C)CC)C(=O)N[C@@H](Cc1ccccc1)C(=O)NCC(=O)N[C@@H](CCCCN)C(=O)N2 [Compound 16] (H-NMDMRCSASVECKQKCLKAIGSIFGKC[Nle]NKKCKCYPR-NH2; disulfide 6-27, 12-32, 16-34) | 0.14 nM | > 3000 nM | >12600 | 133 nM | 0.24 nM | 2460 nM | 0.05 nM |  |  |
| CC[C@H](C)[C@@H]1NC(=O)[C@H](C)NC(=O)[C@H](CCCCN)NC(=O)[C@H](CC(C)C)NC(=O)[C@@H]2CSSC[C@@H](C(=O)N[C@@H](Cc3ccc(O)cc3)C(=O)N3CCC[C@H]3C(=O)N[C@@H](CCCNC(=N)N)C(N)=O)NC(=O)[C@H](CCCCN)NC(=O)[C@@H]3CSSC[C@H](NC(=O)[C@H](CCC(=O)O)NC(=O)[C@H](C(C)C)NC(=O)[C@H](CO)NC(=O)[C@H](C)NC(=O)[C@H](CO)NC(=O)[C@@H](NC(=O)[C@H](CCCNC(=N)N)NC(=O)[C@H](CCSC)NC(=O)[C@H](CC(=O)O)NC(=O)[C@H](CCSC)NC(=O)[C@@H](N)CC(N)=O)CSSC[C@H](NC(=O)[C@H](CCCCN)NC(=O)CNC(=O)[C@H](Cc4ccccc4)NC(=O)[C@H]([C@@H](C)CC)NC(=O)[C@H](CO)NC(=O)CNC1=O)C(=O)N[C@@H](CCSC)C(=O)N[C@@H](CC(N)=O)C(=O)N[C@@H](CCCCN)C(=O)N[C@@H](CCCCN)C(=O)N3)C(=O)N[C@@H](CCCCN)C(=O)N[C@@H](C(C)C)C(=O)N[C@@H](CCCCN)C(=O)N2 [Compound 17] (H-NMDMRCSASVECKVKCLKAIGSIFGKCMNKKCKCYPR-NH2; disulfide 6-27, 12-32, 16-34) | 0.14 nM | > 3000 nM | >7200 | 66 nM | 0.42 nM | 912 nM | 0.4 nM | ≤ 1 nM |  |
| CC[C@H](C)[C@@H]1NC(=O)[C@H](C)NC(=O)[C@H](CC(=O)O)NC(=O)[C@H](CC(C)C)NC(=O)[C@@H]2CSSC[C@@H](C(=O)N[C@@H](Cc3ccc(O)cc3)C(=O)N3CCC[C@H]3C(=O)N[C@@H](CCCNC(=N)N)C(N)=O)NC(=O)[C@H](CCCCN)NC(=O)[C@@H]3CSSC[C@H](NC(=O)[C@H](CCC(=O)O)NC(=O)[C@H](C(C)C)NC(=O)[C@H](CO)NC(=O)[C@H](C)NC(=O)[C@H](CO)NC(=O)[C@@H](NC(=O)[C@H](CCCNC(=N)N)NC(=O)[C@H](CCSC)NC(=O)[C@H](CC(=O)O)NC(=O)[C@H](CCSC)NC(=O)[C@@H](N)CC(N)=O)CSSC[C@H](NC(=O)[C@H](CCCCN)NC(=O)CNC(=O)[C@H](Cc4ccccc4)NC(=O)[C@H]([C@@H](C)CC)NC(=O)[C@H](CO)NC(=O)CNC1=O)C(=O)N[C@@H](CCSC)C(=O)N[C@@H](CC(N)=O)C(=O)N[C@@H](CCCCN)C(=O)N[C@@H](CCCCN)C(=O)N3)C(=O)N[C@@H](CCCCN)C(=O)N[C@@H](CCC(N)=O)C(=O)N[C@@H](CCCCN)C(=O)N2 [Compound 20] (H-NMDMRCSASVECKQKCLDAIGSIFGKCMNKKCKCYPR-NH2; disulfide 6-27, 12-32, 16-34) | 0.13 nM | > 3000 nM | >14300 | 99 nM | 0.21 nM | 2530 nM | 0.1 nM |  |  |
| CC[C@H](C)[C@@H]1NC(=O)[C@H](C)NC(=O)[C@H](CCCCN)NC(=O)[C@H](CC(C)C)NC(=O)[C@@H]2CSSC[C@@H](C(=O)N[C@@H](Cc3ccc(O)cc3)C(=O)N3CCC[C@H]3C(=O)N[C@@H](CCCNC(=N)N)C(N)=O)NC(=O)[C@H](CCCCN)NC(=O)[C@@H]3CSSC[C@H](NC(=O)[C@H](CCC(=O)O)NC(=O)[C@H](C(C)C)NC(=O)[C@H](CO)NC(=O)[C@H](C)NC(=O)[C@H](CO)NC(=O)[C@@H](NC(=O)[C@H](CCCNC(=N)N)NC(=O)[C@H](CCSC)NC(=O)[C@H](CC(=O)O)NC(=O)[C@H](CCSC)NC(=O)[C@@H](N)CC(N)=O)CSSC[C@H](NC(=O)[C@H](CCCCN)NC(=O)CNC(=O)[C@H](Cc4ccccc4)NC(=O)[C@H](CCCNC(=N)N)NC(=O)[C@H](CO)NC(=O)CNC1=O)C(=O)N[C@@H](CCSC)C(=O)N[C@@H](CC(N)=O)C(=O)N[C@@H](CCCCN)C(=O)N[C@@H](CCCCN)C(=O)N3)C(=O)N[C@@H](CCCCN)C(=O)N[C@@H](CCC(N)=O)C(=O)N[C@@H](CCCCN)C(=O)N2 [Compound 35] (H-NMDMRCSASVECKQKCLKAIGSRFGKCMNKKCKCYPR-NH2; disulfide 6-27, 12-32, 16-34) | 0.077 nM | > 3000 nM | >15000 | 18 nM | 0.2 nM | 192 nM | 0.1 nM |  |  |
| CC[C@H](C)[C@H](N)C(=O)N[C@@H](CC(N)=O)C(=O)N[C@H](C(=O)N[C@@H](CCCCN)C(=O)N[C@H]1CSSC[C@@H]2NC(=O)[C@H](CCCCN)NC(=O)CNC(=O)[C@H](Cc3ccccc3)NC(=O)[C@H](CCCNC(=N)N)NC(=O)[C@H](CCSC)NC(=O)CNC(=O)[C@H](C)NC(=O)[C@H](CC(=O)O)NC(=O)[C@H](CCCCN)NC(=O)[C@@H]3CSSC[C@@H](C(=O)N[C@@H](Cc4ccc(O)cc4)C(=O)N[C@@H](CO)C(=O)O)NC(=O)[C@H](CCCNC(=N)N)NC(=O)[C@H](CSSC[C@H](NC(=O)[C@H](CCC(N)=O)NC(=O)[C@H](CCC(N)=O)NC(=O)[C@@H]4CCCN4C(=O)[C@H](CC(C)C)NC(=O)[C@H](CO)NC1=O)C(=O)N[C@@H]([C@@H](C)CC)C(=O)N[C@@H](CCCCN)C(=O)N1CCC[C@H]1C(=O)N3)NC(=O)[C@H](CCCCN)NC(=O)[C@H](CCCCN)NC(=O)[C@H](CC(N)=O)NC(=O)[C@H](CCSC)NC2=O)C(C)C [Moka1, reference compound] |  |  |  |  |  |  |  |  | 10-100 fold |
